Laboratory results from EP2511272B1, “Synthetic analogues of abscisic acid with anti-inflammatory and insulin release stimulation effects on human cells” (Universita' degli Studi di Genova, priority 2011, dated 2012).

Columns and labels:
[1] = target: T1, ABA receptor (Homo sapiens, UniProt Q9NS86); assay: Competition binding with [^3H]-ABA on human granulocytes
T1 construct: endogenous in cells; host or cells: human granulocytes (intact cells)
T1 sequence (Q9NS86 1-450): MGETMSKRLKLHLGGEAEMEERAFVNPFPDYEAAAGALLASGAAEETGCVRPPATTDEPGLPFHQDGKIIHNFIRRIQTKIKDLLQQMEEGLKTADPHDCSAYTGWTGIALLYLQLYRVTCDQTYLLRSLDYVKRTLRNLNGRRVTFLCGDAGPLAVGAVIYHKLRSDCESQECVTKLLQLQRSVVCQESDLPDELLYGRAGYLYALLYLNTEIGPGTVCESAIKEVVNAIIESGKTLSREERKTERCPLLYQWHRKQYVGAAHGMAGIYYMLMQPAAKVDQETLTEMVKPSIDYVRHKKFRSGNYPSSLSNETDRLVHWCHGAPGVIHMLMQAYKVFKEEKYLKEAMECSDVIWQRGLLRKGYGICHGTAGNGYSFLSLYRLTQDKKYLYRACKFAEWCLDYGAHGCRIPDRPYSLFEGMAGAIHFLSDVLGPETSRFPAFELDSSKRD
Description: Human granulocytes (7 x 10^6 per point), after ON incubation in complete DMEM/F12, were incubated in triplicate at 25 °C for 60 min in 100 µl of HBSS spiked with glucose 10 mM in the presence either of an excess of unlabeled ABA (1 mM) (in order to determine the non-specific binding rate) or of increasing concentrations of compound prepared according to example 1 (from 0,01 nM up to 100 µM). To each compound, 10 nM of [^3H]-ABA (GE Healthcare) with specific activity of 98,000 cpm/pmole were added. At the end of incubation, the cells were centrifuged for 30 sec at […], the supernatant was removed and discarded, and the pellet was washed once wih an excess of HBSS in ice, and centrifuged for 30 sec at 17,000xg. The pellet was resuspended in 200 µl of de-ionized water and radioactivity of cells was determined after addition of scintillation cocktail in a β counter.
Specific binding was computed as the difference between the total binding of [^3H]-ABA in the cells and the binding of [^3H]-ABA in the presence of an excess of unlabeled ABA (1 mM) (non-specific binding).
The experiment was carried out five times in triplicate.

[2] = system: human granulocytes; assay: Inhibition of ABA-induced PGE2 production in granulocytes (EIA); format: cell-based; conditions: 6 h
Description: Granulocytes, in a number of 1x10^7 per point in RPMI supplemented with 10 % of foetal calf serum (FCS), penicillin (50 units/ml) and streptomycin (50 µg/ml) (complete RPMI), were incubated for 6 h with […] either alone or in the presence compound prepared according to example 1 at a concentration of 100 nM or of 1 µM. At the end of the incubation, the substrate was centrifuged at 17,000xg for 5 minutes and the concentration of PGE2 was quantitated by using the kit: PGE2 monoclonal EIA kit (Cayman Chemical Co.), following the instructions suppled by the manufacturer.
The cells were lysed in 200 µl of deionized water in order to quantitate total proteins by the Bradford method (Bradford, M. M., 1976), after thre preliminary generation of a reference standard curve, obtained with different concentrations of bovine serum albumin. The spectrophotometric measurements were carried out at wavelength of 595 nm.
The experiment was carried out three times in triplicate TABLE 6). TABLE 6. Inhibition of PGE2 production, in human granulocytes stimulated with ABA, by compound prepared according to example 1

[3] = system: human granulocytes; assay: Stability without extraction in HBSS in the presence of human granulocytes (HPLC-MS); format: in vitro ADME; conditions: for Stability (without extraction): Granulocytes in HBSS, 10 µM, 37 °C
Description: (§1) Additionally, stability tests were carried out in water, in HBSS and in HBSS in the presence of human granulocytes at time 0, and after 1 and 2 hrs at 37 °C, and carrying out HPLC-MSS analysis without extracting the analyte of interest.
(§2) In order to test the compound prepared according to example 1 for stability in HBSS in the presence, or absence, of granulocytes, 1 x 10^8 cells were used in 2 ml of HBSS (with calcium and magnesium added) containing 10 µM of compound prepared according to example 1 at 37°C. Samples of 500 µl each were drawn at time 0, and after 1 and 2 hrs and the cells were separated by centrifugation at 200xg for 5 minutes; the supernatant was then recovered and directly analysed in HPLC-MS.
(§3) The HPLC-MS system used consists of an Agilent 1100 capillary chromatograph equipped with a diode array detector (DAD) and coupled with an Agilent 1100 series LC/MSD Trap mass spectometer with orthogonal electrospray source and a ionic-trap analyser.
(§4) The detection wavelength was 254 nm and the MS spectrum was recorded in negative ions mode in an m/z range of 50-300.
(§5) The amount of compound of example 1 in the extracts and supernatants was computed as the area of the peak under the extracted ion current m/z 279.3, normalized for the ionization efficiency of internal standard (hexadeuterated ABA) used for HPLC-MS analysis. Furthermore, the concentration was computed using the recovery rates obtained from the evaluation of counts per minute (cpm) of extracted [^3H]ABA.

[4] = system: 1321 N1 (human astrocytoma); assay: Cytotoxicity, CellTiter 96 AQueous One Solution assay; format: cell-based; conditions: 24 hrs
[5] = Stability without extraction in H2O and HBSS (HPLC-MS); format: physicochemical; conditions: 10 µM, 37 °C
Description: as §1, §2, §3, §4, §5

[6] = system: granulocytes; assay: Inhibition of ABA-induced chemotaxis (granulocyte migration, ChemoTx); format: cell-based, human

CC(=C/C(=O)O)/C=C/C1(O)C(C)(C)CC(=O)C2OC21C (stereo not drawn) [Example 1, 2'α,3'α-dihydro-2'α,3'α-epoxyabscisic acid]
Ki ([1]; Cheng-Prusoff, [ABA] =10 nM, KD ABA = 11 nM, 95% confidence intervals 0.25 nM to 0.83 nM, read-out: inhibition constant Ki): 0.46 nM | IC50 ([1]; displaces 50 % of radioligand specific binding, 95 % confidence intervals 0.48 nM to 1.58 nM): 0.87 nM | inhibition at 0.1 µM ([2]; ABA 100 nM + compound 100 nM): 85% | inhibition at 1 µM ([2]; ABA 100 nM + compound 1 µM): 100% | Stability (without extraction) ([3]; 0 hr): 94% | Stability (without extraction) ([3]; 1 h): 82% | Stability (without extraction) ([3]; 2 hrs): 73% | degradation rate ([3]; phosphate buffer with human granulocytes, non-extracted samples): about 10 %/ hour | number of cells ([4]; 1 nM): 16199 | vitality % ([4]; 1 nM): 89% | number of cells ([4]; 10 nM): 18785 | vitality % ([4]; 10 nM): 102% | number of cells ([4]; 1 µM): 19446 | vitality % ([4]; 1 µM): 106% | number of cells ([4]; 100 µM): 22252 | vitality % ([4]; 100 µM): 120% | Stability (without extraction) ([5]; H2O, 0 hr): 100% | Stability (without extraction) ([5]; H2O, 1 h): 100% | Stability (without extraction) ([5]; H2O, 2 hrs): 98% | Stability (without extraction) ([5]; HBSS, 0 hr): 100% | Stability (without extraction) ([5]; HBSS, 1 h): 100% | Stability (without extraction) ([5]; HBSS, 2 hrs): 89% | CI±SD (chemotactic index) ([6]; ABA 1 µM + compound 10 nM): 1.26±0.07 | inhibition at 0.01 µM ([6]; Homo sapiens, migration towards ABA 1 µM, compound 10 nM): 57%
